SMILES strings stand for the structures.

The test addresses T1, human LXRβ (Homo sapiens, UniProt P55055).
T1 construct: biotin (biotinylated); made in house; host or cells: E. coli
T1 sequence (P55055 1-460): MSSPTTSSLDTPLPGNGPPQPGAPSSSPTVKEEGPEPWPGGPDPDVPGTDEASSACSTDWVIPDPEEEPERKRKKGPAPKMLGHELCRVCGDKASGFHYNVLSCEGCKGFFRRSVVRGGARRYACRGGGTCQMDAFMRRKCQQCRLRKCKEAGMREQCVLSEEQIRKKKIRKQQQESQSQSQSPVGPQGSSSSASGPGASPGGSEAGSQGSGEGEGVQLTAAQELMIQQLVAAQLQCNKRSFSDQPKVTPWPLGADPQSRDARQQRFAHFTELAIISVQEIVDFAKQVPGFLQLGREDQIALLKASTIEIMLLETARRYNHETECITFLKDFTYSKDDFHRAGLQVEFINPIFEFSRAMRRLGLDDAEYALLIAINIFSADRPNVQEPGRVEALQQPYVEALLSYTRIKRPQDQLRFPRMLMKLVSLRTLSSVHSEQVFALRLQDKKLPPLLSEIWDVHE
As to the kind of experiment: Ligand-binding test procedure for human LXRβ (3H T0901317 tracer, flash plates). Particulars: biotinylated hLXRβ, tracer 3H T0901317, +4° C. over night. The protocol:
I. Ligand-Binding Test Procedure for Human LXRβ.
Receptor source: E. coli extracted from cells expressing biotinylated hLXRβ. Extract was made in a similar buffer as above, but with 50 mM TRIS.
Washed streptavidin and coated flash plates with wash buffer. Diluted receptor extract to give Bmax˜4000 cpm and add to the wells. Wrapped the plates in aluminum foil and stored them at +4° C. overnight.
Made a dilution series in DMSO of the test ligands. Made a 5 nM solution of the radioactive tracer in buffer. Mixed 250 μl diluted tracer with 5 μl of the test ligand from each concentration of the dilution series. Washed the receptor-coated flash plates. Added 200 μl per well of the ligand/radiolabel mixture to the receptor-coated flash plates. Wrapped the plates in aluminum foil and incubate at +4° C. over night.
Aspirated wells, and washed the flashed plates. Sealed the plate.
Measured the remaining radioactivity in the plate.
Consider `Cc1nc2c(C(F)(F)F)cccc2nc1-c1ccc(-c2ccccc2S(C)(=O)=O)cc1` [Example 21, 3-methyl-2-[2′-(methylsulfonyl)biphenyl-4-yl]-5-(trifluoromethyl)quinoxaline], for which the IC50 is > 1000 nM.

In the case of `CCc1nc2cccc(C(F)(F)F)c2nc1-c1ccc(-c2cccc(S(C)(=O)=O)c2)cc1` [Example 34, 2-ethyl-3-[3′-(methylsulfonyl)biphenyl-4-yl]-5-(trifluoromethyl)quinoxaline], the IC50 was found to be 353 nM.

Take `Cc1nc2c(Cl)cccc2nc1Oc1cccc(-c2cccc(S(N)(=O)=O)c2)c1` [Example 89, 3′-[(5-chloro-3-methylquinoxalin-2-yl)oxy]biphenyl-3-sulfonamide]: the IC50 is > 1000 nM.

Turning to `Cc1nc2c(C(F)(F)F)cccc2nc1-c1ccc(Oc2cccc(S(C)(=O)=O)c2)cc1F` [Example 30, 2-{2-fluoro-4-[3-(methylsulfonyl)phenoxy]phenyl}-3-methyl-5-(trifluoromethyl)quinoxaline], the IC50 was > 1000 nM.

Regarding `Cc1nc2cccc(C(F)(F)F)c2nc1-c1ccc(Oc2cccc(S(C)(=O)=O)c2)cc1F` [Example 29, 3-{2-fluoro-4-[3-(methylsulfonyl)phenoxy]phenyl}-2-methyl-5-(trifluoromethyl)quinoxaline], the IC50 was > 1000 nM.

Take `CS(=O)(=O)c1cccc(-c2ccc(-c3nc4cccc(C(F)(F)F)c4nc3N)cc2)c1` [Example 33, 3-[3′-(methylsulfonyl)biphenyl-4-yl]-8-(trifluoromethyl)quinoxalin-2-amine]: the IC50 was determined as 723 nM.

For the molecule `CNS(=O)(=O)c1cccc(-c2cccc(Oc3nc4cccc(Cl)c4nc3C)c2)c1` [Example 88, 3′-[(5-chloro-3-methylquinoxalin-2-yl)oxy]-N-methylbiphenyl-3-sulfonamide], the IC50 is > 1000 nM.

`CS(=O)(=O)c1ccc(-c2ccc(-c3cnc4cccc(C(F)(F)F)c4n3)cc2)cc1` [Example 23, 2-[4′-(methylsulfonyl)biphenyl-4-yl]-8-(trifluoromethyl)quinoxaline]: the IC50 was > 1000 nM.

As for `Cc1nc2cccc(C(F)(F)F)c2nc1-c1ccc(-c2cccc(NS(C)(=O)=O)c2)cc1` [Example 47, N-{4′-[3-methyl-8-(trifluoromethyl)quinoxalin-2-yl]biphenyl-3-yl}methanesulfonamide], the IC50 is > 1000 nM.

As for `CS(=O)(=O)c1ccccc1-c1ccc(-c2cnc3cccc(C(F)(F)F)c3n2)cc1` [Example 24, 2-[2′-(methylsulfonyl)biphenyl-4-yl]-8-(trifluoromethyl)quinoxaline], the IC50 was > 1000 nM.

Consider `CS(=O)(=O)c1cccc(Oc2cccc(-c3cnc4c(C(F)(F)F)cccc4n3)c2)c1` [Example 14, 2-{3-[3-(methylsulfonyl)phenoxy]phenyl}-5-(trifluoromethyl)quinoxaline], for which the IC50 was > 1000 nM.

In the case of `Cc1nc2c(C(F)(F)F)cccc2nc1-c1cccc(-c2ccc(S(C)(=O)=O)cc2)c1` [Example 20, 3-methyl-2-[4′-(methylsulfonyl)biphenyl-3-yl]-5-(trifluoromethyl)quinoxaline], the IC50 is > 1000 nM.

On to `Cc1nc2c(C(F)(F)F)cccc2nc1-c1ccc(-c2ccc(S(C)(=O)=O)cc2)cc1` [Example 18, 3-methyl-2-[4′-(methylsulfonyl)biphenyl-4-yl]-5-(trifluoromethyl)quinoxaline], for which the IC50 is > 1000 nM.

`CNC(=O)c1cccc(-c2ccc(-c3nc4cccc(C(F)(F)F)c4nc3C)cc2)c1` [Example 52, N-methyl-4′-[3-methyl-5-(trifluoromethyl)quinoxalin-2-yl]biphenyl-3-carboxamide]: the IC50 is > 1000 nM.

In the case of `CS(=O)(=O)c1cccc(-c2ccc(-c3nc4ccccc4nc3C(F)(F)F)cc2)c1` [Example 26, 2-[3′-(methylsulfonyl)biphenyl-4-yl]-3-(trifluoromethyl)quinoxaline], the IC50 was > 1000 nM.

Turning to `Cc1nc2c(C(F)(F)F)cccc2nc1-c1cc(Oc2cccc(S(C)(=O)=O)c2)ccc1-c1ccccc1` [Example 40, 3-methyl-2-{4-[3-(methylsulfonyl)phenoxy]biphenyl-2-yl}-5-(trifluoromethyl)quinoxaline], the IC50 was > 1000 nM.

Consider `CS(=O)(=O)Nc1cccc(-c2ccc(Oc3cnc4c(Cl)cccc4n3)cc2)c1` [Example 87, N-{4′-[(5-chloroquinoxalin-2-yl)oxy]biphenyl-3-yl}methanesulfonamide], for which the IC50 is > 1000 nM.

`CNS(=O)(=O)c1cccc(-c2cccc(Oc3cnc4c(Cl)cccc4n3)c2)c1` [Example 84, 3′-[(5-Chloroquinoxalin-2-yl)oxy]-N-methylbiphenyl-3-sulfonamide]: the IC50 came out at 640 nM.

The molecule `Cc1nc2c(Cl)ccc(Cl)c2nc1-c1ccc(-c2cccc(S(C)(=O)=O)c2)cc1` [Example 35, 5,8-dichloro-2-methyl-3-[3′-(methylsulfonyl)biphenyl-4-yl]quinoxaline] had an IC50 of 99.5 nM.

In the case of `Cc1nc2c(C(F)(F)F)cccc2nc1-c1ccc(-c2ccc(CCC(=O)O)cc2)cc1` [Example 55, 3-{4′-[3-methyl-5-(trifluoromethyl)quinoxalin-2-yl]biphenyl-4-yl}propanoic acid], the IC50 was > 1000 nM.

For the molecule `CCS(=O)(=O)c1cccc(Oc2ccc(-c3nc4c(C(F)(F)F)cccc4nc3C)cc2)c1` [Example 15, 3-{4-[3-(ethylsulfonyl)phenoxy]phenyl}-2-methyl-5-(trifluoromethyl)quinoxaline], the IC50 was > 1000 nM.

Consider `Cc1nc2cccc(C(F)(F)F)c2nc1-c1cc(Oc2ccc(S(C)(=O)=O)cc2)ccc1Cl` [Example 39, 3-{2-chloro-5-[4-(methylsulfonyl)phenoxy]phenyl}-2-methyl-5-(trifluoromethyl)quinoxaline], for which the IC50 is > 1000 nM.

For `CCS(=O)(=O)c1cccc(Oc2cccc(-c3cnc4cccc(C(F)(F)F)c4n3)c2)c1` [Example 16, 2-{3-[3-(ethylsulfonyl)phenoxy]phenyl}-8-(trifluoromethyl)quinoxaline], the IC50 was > 1000 nM.

Consider `CNS(=O)(=O)c1cccc(-c2ccc(Oc3nc4cccc(Cl)c4nc3C)cc2)c1` [Example 91, 4′-[(5-chloro-3-methylquinoxalin-2-yl)oxy]-N-methylbiphenyl-3-sulfonamide], for which the IC50 came out at 933 nM.

As to `Cc1nc2c(C(F)(F)F)cccc2nc1-c1ccc(-c2cccc(NS(C)(=O)=O)c2)cc1` [Example 49, N-{4′-[3-methyl-5-(trifluoromethyl)quinoxalin-2-yl]biphenyl-3-yl}methanesulfonamide], the IC50 is > 1000 nM.

For `Cc1nc2c(C(F)(F)F)cccc2nc1-c1cccc(-c2cccc(S(C)(=O)=O)c2)c1` [Example 19, 3-methyl-2-[3′-(methylsulfonyl)biphenyl-3-yl]-5-(trifluoromethyl)quinoxaline], the IC50 is > 1000 nM.

For the molecule `CS(=O)(=O)c1cccc(Oc2cccc(-c3cnc4cccc(Cl)c4n3)c2)c1` [Example 13, 8-chloro-2-{3-[3-(methylsulfonyl)phenoxy]phenyl}quinoxaline], the IC50 is > 1000 nM.

For `CS(=O)(=O)c1cccc(Oc2ccc(-c3nc4ccccc4nc3C(F)(F)F)cc2)c1` [Example 27, 2-{4-[3-(methylsulfonyl)phenoxy]phenyl}-3-(trifluoromethyl)quinoxaline], the IC50 was > 1000 nM.

As to `Cc1nc2c(C(F)(F)F)cccc2nc1-c1ccc(-c2cccc(C(N)=O)c2)cc1` [Example 50, 4′-[3-methyl-5-(trifluoromethyl)quinoxalin-2-yl]biphenyl-3-carboxamide], the IC50 is > 1000 nM.

One may read the IC50 as the midpoint of a concentration-inhibition curve. High values mean lower potency, low ones higher potency.

The values are drawn from US20100120778A1, “QUINOXALINE-BASED LXR MODULATORS” (Wyeth, priority 2008, published 2010).
